Here are results for 1 molecule from PMC5651845, “A New Generation of Arachidonic Acid Analogues as Potential Neurological Agent Targeting Cytosolic Phospholipase A2” (Scientific Reports, 2017).

The subject of test [1] is iNOS expression in BV-2 cells. Nature of the test: iNOS protein expression (western blot) in LPS-stimulated BV-2 cells. The format is cell-based, murine. The conditions noted are these: 2 μg/mL LPS, 14 h. The source says: It is well-established that reactive oxygen species (ROS) and nitric oxide (NO), produced during microglia activation, contribute to inflammatory response and cytotoxic damage to the surrounding neurons and neighbouring cells. Recent studies have shown that BV-2 microglial cell could serve as an in vitro model to mimic such neuroinflammatory states when stimulated with lipopolysaccharide (LPS)[49]. LPS activates BV-2 cells by triggering a cascade of inflammatory events which includes the production of NO. This event is characterized by the generation of the biomarker, inducible nitric oxide synthase (iNOS), as well as ROS. Chuang et al.[50] have also shown that cPLA2 is a major contributor in this pathway and inhibiting this enzyme reduces the production of the neurotoxic mediators and provide neuroprotective effects. Therefore to investigate the ability of 2i in inhibiting cPLA2 in a neuroinflammatory model, BV-2 cells were treated with LPS (2 μg/mL), incubated for different time points, collected and lysed for protein extraction. […] The cPLA2 level was also determined and found to be largely constant throughout the entire activation process with a slight drop at the 24 h timepoint (Fig. 3F). Next, 2i (1, 10 and 20 μM) were incubated together with LPS in the BV-2 cells for 14 h (Fig. 4A,B). […]
In general terms: In western blotting, separated proteins are transferred to a membrane and probed.

The next test concerns the target T1, recombinant cPLA2 (Homo sapiens, UniProt P47712).
T1 construct: purchased US Biological P4074-03R
T1 sequence (P47712 1-749): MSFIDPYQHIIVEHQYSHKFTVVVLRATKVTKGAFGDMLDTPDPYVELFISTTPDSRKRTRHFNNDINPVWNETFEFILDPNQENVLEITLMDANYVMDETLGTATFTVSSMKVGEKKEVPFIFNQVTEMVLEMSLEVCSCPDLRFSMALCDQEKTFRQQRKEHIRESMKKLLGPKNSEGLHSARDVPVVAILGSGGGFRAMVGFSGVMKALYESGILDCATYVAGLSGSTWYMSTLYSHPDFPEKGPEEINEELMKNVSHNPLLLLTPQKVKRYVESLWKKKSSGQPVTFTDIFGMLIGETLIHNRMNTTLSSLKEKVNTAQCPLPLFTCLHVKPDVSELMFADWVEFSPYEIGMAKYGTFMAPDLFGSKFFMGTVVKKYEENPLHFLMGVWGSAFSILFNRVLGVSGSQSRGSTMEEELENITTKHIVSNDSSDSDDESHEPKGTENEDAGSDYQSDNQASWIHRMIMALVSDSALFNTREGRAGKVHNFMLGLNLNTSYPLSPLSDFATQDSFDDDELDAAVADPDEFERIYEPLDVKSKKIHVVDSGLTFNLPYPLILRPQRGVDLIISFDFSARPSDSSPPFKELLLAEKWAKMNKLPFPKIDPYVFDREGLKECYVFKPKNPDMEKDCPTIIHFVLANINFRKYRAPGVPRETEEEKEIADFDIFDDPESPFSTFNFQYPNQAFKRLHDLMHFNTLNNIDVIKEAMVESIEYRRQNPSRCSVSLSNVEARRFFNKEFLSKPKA
Nature of the test: EnzChek phospholipase A2 fluorogenic assay (% activity) at 10 μM. In kind it is biochemical. The conditions noted are these: 10 μM compound. As to the method:
The compounds were evaluated with a fluorogenic PLA2 assay kit (EnzChek® Phospholipase A2 Assay Kit, Catalog No: E10217) at a standard 10 μM concentration. Potential inhibitors were determined by their ability to lower cPLA2 activity to a greater extent than 1a.
The assay was conducted according to the manufacturer’s instruction (E10217, Molecular Probes) with slight modification. Briefly, substrate solution was separately prepared by mixing 5 μL of DOPG, 5 μL of DOPC and 5 μL of substrate respectively in 1.5 mL of 1X phospholipase A2 reaction buffer. The mixture was vortexed vigorously for 3 min before allowing to stand at room temperature for 1 h. 48 μL of 1X phospholipase A2 reaction buffer were added into each well of a 96-wells plate. This was followed by addition of 1 μL of recombinant cPLA2 (P4074-03R, US Biological) and 1 μL of 1 mM of the respective compound dissolved in DMSO. The final concentration of the test compound achieved is 10 μM. The reaction was initiated by adding 50 μL of the substrate solution and incubating at room temperature for 1 h. Fluorescence was measured using a Varioskan plate reader (Thermo Scientific, MA, USA) by exciting at 485 nm, while fluorescence emission was detected at 515 nm. Positive control was performed when 1 μL of test compound was replaced by vehicle DMSO. % activity was expressed as the mean value of duplicate wells from three experiments. % activity was calculated by the following formula1 %activity=fluorescenceoftestedwell−background/fluorescenceofpostivecontrol−background

For `CCCCC/C=C\C/C=C\C/C=C\C/C=C\CCCCC(=O)Nc1cccc(C(=O)O)c1` [2i], the “reduction of LPS-induced iNOS expression” value in test [1] (20 µM) is listed as 50%. Besides, in test [1] (1–20 μM), the “iNOS level, concentration dependence” value is recorded as “dose-dependent decrease in the iNOS level”. At recombinant cPLA2, the inhibition – broadly, the drop in the measured response relative to a control, in per cent – at 10 µM was 88.5%. The remaining activity (in general, the signal under treatment as a percentage of the control signal) at 10 µM at recombinant cPLA2 (1 h, room temperature) is 11.5 ± 1%.
